Data from patent US10751351B2, “Medicament for treatment of diabetic foot infections” (Debiopharm International S.A., priority 2016, dated 2020).
pIC50: −log10 of the molar value. Converted amounts (≈) assume the structure as drawn. Read-outs that look alike come from different tables or passages of the source. Marks after values point to notes of the source that are not given here.

Tests used:
MRSA clinical strain [1] = type: in vivo, rabbit; conditions: 4 days of treatment; for bacterial counts in BM and bone, result in words: versus vehicle; for Mean ± SD Δlog10 CFU/g of tissue (day 3-day 7), Bone marrow / Mean ± SD Δlog10 CFU/g of tissue (day 3-day 7), Epiphyseal bone: Compound A 12.5 mg/kg BID iv, vancomycin 100 mg/kg once daily constant iv infusion
Experimental: (§1) MIC assays were performed by broth microdilution using CLSI guidelines. Osteomyelitis (OM) was induced in rabbit through inoculation of the knee with 10^8 CFU of an MRSA clinical strain after bone trepanation. On day 3 post-inoculation, surgical debridement was performed to mimic the clinical procedure. Samples of femoral red bone marrow (BM) and epiphyseal spongy bone were removed and bacterial counts were determined.
On day 7 post-inoculation, the bacterial counts were determined in BM and bone samples. The treatment efficacy was assessed by comparing the bacterial counts before (day 3 after infection) and after (day 7 after infection) the antibacterial therapy. Infected and non-infected BM, bone and plasma samples were collected for quantification of Compound B by LC-MS/MS.

MRSA clinical strain [2] = experiment: Staphylococcus aureus-induced acute osteomyelitis in a rabbit model (2), dose range; type: in vivo
Experimental: (§2) MIC assays were performed by broth microdilution using CLSI guidelines. OM was induced in rabbit through inoculation of the knee with 10^8 CFU/mL of a MRSA clinical strain after bone trepanation. On day 3 post-inoculation, surgical debridement was performed to mimic the clinical procedure. Samples of femoral red bone marrow (BM) and epiphyseal spongy bone were removed and bacterial counts corresponding to day 3 after infection were determined. Treatments were started after 3 days of infection and lasted for 4 days with compound A at the dose level of 12.5, 6.25, 1.6, 0.4 or 0.1 mg/kg BID iv (4 h infusion) or its vehicle BID iv. On day 7 post-inoculation, the bacterial counts were determined in BM and bone samples. The treatment efficacy was assessed by comparing the bacterial counts before (day 3 after infection) and after (day 7 after infection) the antibacterial therapy.

[3] = system: Panton-Valentine leukocidin (PVL)-positive MRSA strain; experiment: Staphylococcus aureus-induced acute osteomyelitis in a rat model; type: in vivo; conditions: for mean reduction in bacterial burden compared to vehicle controls: after 3 weeks of treatment; for mean reduction in bacterial burden compared to vehicle controls / Bone cultures found negative (rats): Compound A 100 mg/kg po BID, vancomycin 100 mg/kg ip QD, fosfomycin 75 mg/kg ip QD; for Bone cultures found negative (rats): day 28, after 3 weeks of treatment
Experimental: (§3) Minimum inhibitory concentration (MIC) assays were performed by broth microdilution using CLSI guidelines against 20 MRSA strains isolated from bone infections. Experimental osteomyelitis was induced through inoculation of the tibial medullary cavity with 7 log10 colony-forming unit (CFU) of a Panton-Valentine leukocidin (PVL)-positive MRSA strain on day 1. Animals were randomly assigned to the following treatment groups: Compound A 100 mg/kg po BID, vancomycin 100 mg/kg ip QD, fosfomycin 75 mg/kg ip QD and vehicle po BID for 3 weeks starting on day 8 post infection (n=6/group). CFU were enumerated in bone homogenates prior to treatment on day 8 in control animals and at the end of treatment period on day 28. Infected and non-infected bone and plasma samples were collected for quantification of Compound B by LC-MS/MS.

[4] = system: rabbit saphenous vein rings; experiment: In vitro vascular relaxation test in rabbit saphenous vein rings pre-contracted with noradrenaline; type: cell-based; conditions: for EC50: Oryctolagus cuniculus, saphenous vein rings pre-contracted with 1 μM noradrenaline, read-out: pD2 value (−log EC50) (converted); for relaxation of 1 μM noradrenaline pre-contracted preparations: DMSO-treated group −29±11%
Experimental: The vascular relaxing effects of Compound B were evaluated using isolated rabbit saphenous venous tissue. Rabbits were sacrificed by a blow to the head followed by a cervical dislocation and exsanguination. A segment of the saphenous vein was carefully excised. Vein was cleaned of all fat and connective tissue and cut into 2.5 mm long rings. The rings were then mounted horizontally in 20-ml organ baths filled with Krebs's solution maintained at 37.7±0.5° C. and gassed with a mixture of 95% O2 and 5% CO2. Krebs's solution was made up as follows (mM): NaCl: 118.0/KCl: 5.0/CaCl2): 2.6/MgSO4 (7H2O): 1.2/NaHCO3: 24.9/KH2PO4: 1.2/glucose: 10.0. pH is 7.40±0.05. The rings were allowed to equilibrate for 60 minutes at an optimal resting tension of 1 g. Contractile tensions were measured using an isometric force transducer and signals were analyzed using a specialized software (IOX version 1.554, EMKA Technologies, Paris, France). Tissue viability was verified using three challenges to 80 mM KCl. The maximal contraction was reached after 3 challenges of KCl. Endothelium integrity was verified on the basis of the relaxation produced by 1 μM acetylcholine in rings precontracted with 1 μM noradrenaline. All experiments were performed on […] rings with endothelium. The method evaluated the effect of the test substance in pre-contracted preparations. The preparations were pre-contracted with an agonist (Noradrenaline at 1 μM) until a stable tonic contraction was reached. Six cumulative concentrations of the test or comparison substances were then added into the bath and relaxations were recorded to plot a concentration-response curve. Three preparations were exposed to DMSO, 0.1% over 6 consecutive periods for comparison to Compound B and cilostazol. Four preparations (obtained from 4 animals) were studied for the test and comparison substances. Three preparations were studied for the DMSO-treated group. The relaxation response to test substance was expressed as the percentage of inhibition of agonist-induced pre-contraction. The concentration of agonist inducing 50% of the maximum response (EC50) was determined from each individual concentration-response curve using linear regression. For each ring, the agonist potency (pD2) was calculated as −log (EC50).

[5] = Bone and plasma quantification of Compound B by LC-MS/MS in rat osteomyelitis model; conditions: in vivo, Compound A 100 mg/kg po BID, no difference between infected and non-infected tibias, read-out: bone:plasma ratio of Compound B
Experimental: as §3

MRSA clinical strain [6] = experiment: MIC by broth microdilution against the MRSA isolate (Example 5); type: cell-based; conditions: Staphylococcus aureus, Example 5 isolate
Experimental: as §2

human PDE3A = human PDE3A (Homo sapiens, UniProt Q14432); experiment: PDE3 inhibition assay, Caliper mobility shift (PDE3A); type: biochemical; conditions: iFL-cAMP substrate, read-out: absolute IC50 PDE3A
Chain of human PDE3A (Q14432 whole entry): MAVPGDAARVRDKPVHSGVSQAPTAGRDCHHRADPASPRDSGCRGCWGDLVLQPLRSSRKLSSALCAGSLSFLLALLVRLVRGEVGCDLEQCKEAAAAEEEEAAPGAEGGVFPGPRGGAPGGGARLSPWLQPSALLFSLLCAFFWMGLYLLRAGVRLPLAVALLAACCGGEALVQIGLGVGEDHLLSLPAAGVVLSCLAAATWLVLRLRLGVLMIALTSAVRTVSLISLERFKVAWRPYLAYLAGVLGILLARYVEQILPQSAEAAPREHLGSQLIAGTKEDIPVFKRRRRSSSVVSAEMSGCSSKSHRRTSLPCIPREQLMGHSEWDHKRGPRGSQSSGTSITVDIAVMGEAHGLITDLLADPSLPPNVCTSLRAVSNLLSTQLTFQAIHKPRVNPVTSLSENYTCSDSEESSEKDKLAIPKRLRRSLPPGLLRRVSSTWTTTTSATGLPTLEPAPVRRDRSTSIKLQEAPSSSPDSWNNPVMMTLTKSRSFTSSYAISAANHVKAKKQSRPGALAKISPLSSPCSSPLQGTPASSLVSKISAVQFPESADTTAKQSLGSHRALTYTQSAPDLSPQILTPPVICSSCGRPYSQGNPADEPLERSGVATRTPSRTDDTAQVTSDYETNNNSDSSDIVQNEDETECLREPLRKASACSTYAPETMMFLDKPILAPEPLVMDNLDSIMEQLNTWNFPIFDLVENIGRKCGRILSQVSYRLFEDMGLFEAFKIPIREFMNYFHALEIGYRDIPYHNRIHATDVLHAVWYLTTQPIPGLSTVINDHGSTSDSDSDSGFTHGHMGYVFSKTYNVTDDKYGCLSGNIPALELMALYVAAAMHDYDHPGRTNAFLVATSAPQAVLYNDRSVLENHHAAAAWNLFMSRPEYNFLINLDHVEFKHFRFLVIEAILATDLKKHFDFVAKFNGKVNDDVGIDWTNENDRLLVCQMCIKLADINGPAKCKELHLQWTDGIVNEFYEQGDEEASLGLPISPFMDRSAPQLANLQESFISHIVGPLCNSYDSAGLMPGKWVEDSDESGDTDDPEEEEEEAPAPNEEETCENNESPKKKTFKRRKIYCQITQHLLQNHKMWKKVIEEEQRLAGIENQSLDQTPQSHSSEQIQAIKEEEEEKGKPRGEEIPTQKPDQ
Experimental: (§4) The inhibitory activity of Compound B was assessed against human PDE3A and PDE3B and was compared to cilostazol (a PDE3 inhibitor) in the enzymatic phosphodiesterase assay using Caliper mobility shift assay (2. Card A1, Caldwell C, Min H et al: High-throughput biochemical kinase selectivity assays: panel development and screening applications. J Biomol Screen. (2009); 14(1):31-42.). This method is based on change in charge and electrophoretic separation of product from fluorescently labeled substrate iFL-cAMP. Assays were performed in a 26 μL volume in a 384 well plate. iFL-cAMP substrate was incubated, off-chip, in reaction buffer (100 mM HEPES (pH 7.5), 5 mM MgCl2 and 0.002% Brij35) in the presence of active enzymes (PDE3A and PDE3B) and test compounds at various concentrations. After incubation period, the reaction products and remaining substrate were measured. Detection was performed using EZ reader II. The concentration of compound inducing 50% of the response (IC50) was determined from each individual concentration-response curve using variable slope fits with Prism software (Graph Pad, San Diego, Calif., USA).

human PDE3B = human PDE3B (Homo sapiens, UniProt Q13370); experiment: PDE3 inhibition assay, Caliper mobility shift (PDE3B); type: biochemical; conditions: iFL-cAMP substrate, read-out: absolute IC50 PDE3B
Chain of human PDE3B (Q13370 whole entry): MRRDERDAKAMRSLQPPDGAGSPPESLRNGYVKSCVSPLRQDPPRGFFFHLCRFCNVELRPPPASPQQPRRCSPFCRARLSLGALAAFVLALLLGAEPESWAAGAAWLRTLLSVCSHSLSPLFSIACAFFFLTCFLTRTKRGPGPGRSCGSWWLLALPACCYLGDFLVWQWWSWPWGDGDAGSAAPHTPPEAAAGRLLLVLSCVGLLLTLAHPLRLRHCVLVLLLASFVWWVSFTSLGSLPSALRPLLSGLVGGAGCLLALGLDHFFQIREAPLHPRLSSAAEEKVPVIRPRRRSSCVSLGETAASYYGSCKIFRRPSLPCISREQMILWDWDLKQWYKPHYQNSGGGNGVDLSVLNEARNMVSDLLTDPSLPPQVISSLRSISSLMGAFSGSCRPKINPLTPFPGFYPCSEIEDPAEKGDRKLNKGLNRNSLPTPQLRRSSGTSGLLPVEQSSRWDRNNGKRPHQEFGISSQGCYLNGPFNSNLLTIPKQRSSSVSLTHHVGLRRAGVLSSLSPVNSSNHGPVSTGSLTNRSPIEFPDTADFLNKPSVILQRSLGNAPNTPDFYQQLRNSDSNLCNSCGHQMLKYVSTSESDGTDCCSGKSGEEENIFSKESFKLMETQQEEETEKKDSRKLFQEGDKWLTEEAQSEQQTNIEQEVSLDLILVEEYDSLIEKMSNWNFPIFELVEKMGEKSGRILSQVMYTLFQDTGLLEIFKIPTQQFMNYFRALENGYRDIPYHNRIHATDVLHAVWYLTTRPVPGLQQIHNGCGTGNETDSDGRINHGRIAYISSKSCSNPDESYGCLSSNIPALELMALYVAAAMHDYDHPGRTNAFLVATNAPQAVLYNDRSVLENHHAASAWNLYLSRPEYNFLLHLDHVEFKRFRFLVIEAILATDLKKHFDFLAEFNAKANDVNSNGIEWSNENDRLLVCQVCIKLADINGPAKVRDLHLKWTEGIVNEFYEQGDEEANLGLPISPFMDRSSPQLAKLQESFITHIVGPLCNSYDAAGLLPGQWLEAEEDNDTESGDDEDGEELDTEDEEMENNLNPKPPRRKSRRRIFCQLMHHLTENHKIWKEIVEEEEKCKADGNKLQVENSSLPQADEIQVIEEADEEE
Experimental: as §4

MRSA clinical strain [7] = experiment: MIC by broth microdilution against the MRSA isolate (Example 4); type: cell-based; conditions: Staphylococcus aureus, read-out: MIC for the MRSA isolate
Experimental: as §1

[8] = 0.1 mg/kg BID iv, 4 days of treatment, 1 animal
[9] = 0.4 mg/kg BID iv, 4 days of treatment
[10] = 1.6 mg/kg BID iv, 4 days of treatment
[11] = 6.25 mg/kg BID iv, 4 days of treatment
[12] = 12.5 mg/kg BID iv, 4 days of treatment

## Cc1c(CN(C)C(=O)/C=C/c2cnc3c(c2)CCC(=O)N3COP(=O)(O)O)oc2ccccc12 [Compound A, {6-[(1E)-3-{methyl[(3-methyl-1-benzofuran-2-yl)methyl]amino}-3-oxoprop-1-en-1-yl]-2-oxo-3,4-dihydro-1,8-naphthyridin-1(2H)-yl}methyl dihydrogen phosphate]
MRSA clinical strain [1]
  bacterial counts in BM and bone, result in words: significant anti-staphylococcal activity
  Mean ± SD Δlog10 CFU/g of tissue (day 3-day 7), Bone marrow: −3.62 ± 0.67 log10 CFU/g of tissue
  Mean ± SD Δlog10 CFU/g of tissue (day 3-day 7), Epiphyseal bone: −2.52 ± 1.25 log10 CFU/g of tissue
MRSA clinical strain [2]; [8]
  Δlog10 CFU/g of tissue (day 3-day 7), Bone marrow: −0.74 log10 CFU/g of tissue
  Δlog10 CFU/g of tissue (day 3-day 7), Epiphyseal bone: −1.02 log10 CFU/g of tissue
MRSA clinical strain [2]; [9]
  Mean ± SD Δlog10 CFU/g of tissue (day 3-day 7), Bone marrow: −2.03 ± 1.11 ^a log10 CFU/g of tissue
  Mean ± SD Δlog10 CFU/g of tissue (day 3-day 7), Epiphyseal bone: −1.23 ± 0.93 ^b log10 CFU/g of tissue
MRSA clinical strain [2]; [10]
  Mean ± SD Δlog10 CFU/g of tissue (day 3-day 7), Bone marrow: −3.18 ± 0.74 ^a log10 CFU/g of tissue
  Mean ± SD Δlog10 CFU/g of tissue (day 3-day 7), Epiphyseal bone: −1.53 ± 1.53 ^a log10 CFU/g of tissue
MRSA clinical strain [2]; [11]
  Mean ± SD Δlog10 CFU/g of tissue (day 3-day 7), Bone marrow: −3.45 ± 1.53 ^a log10 CFU/g of tissue
  Mean ± SD Δlog10 CFU/g of tissue (day 3-day 7), Epiphyseal bone: −2.17 ± 0.72 ^a log10 CFU/g of tissue
MRSA clinical strain [2]; 12.5 mg/kg
  bacterial titers in BM and bone, result in words: significant reduction in bacterial titers
MRSA clinical strain [2]; [12]
  Mean ± SD Δlog10 CFU/g of tissue (day 3-day 7), Bone marrow: −3.42 ± 0.96 ^a log10 CFU/g of tissue
  Mean ± SD Δlog10 CFU/g of tissue (day 3-day 7), Epiphyseal bone: −1.76 ± 0.74 ^a log10 CFU/g of tissue
MRSA clinical strain [2]; lower doses 6.25, 1.6, 0.4 and 0.1 mg/kg IV BID, down to the 0.4 mg/kg dose
  bacterial counts in BM and bone, result in words: significant reduction in bacterial counts
[3]
  mean reduction in bacterial burden compared to vehicle controls: 2.8 log10 CFU/g of bone
  Bone cultures found negative (rats): 2/6
[3]; after the 3-week treatment period
  development of resistance: No development of resistance

## Cc1c(CN(C)C(=O)/C=C/c2cnc3c(c2)CCC(=O)N3)oc2ccccc12 [Compound B, (E)-N-methyl-N-((3-methylbenzofuran-2-yl)methyl)-3-(7-oxo-5,6,7,8-tetrahydro-1,8-naphthyridin-3-yl)acrylamide]
[4]
  EC50: 1410 nM
[4]; at 10 μM
  relaxation of 1 μM noradrenaline pre-contracted preparations: −69±9%
[4]; at 3 and 10 μM
  relaxant effects compared to vehicle control group (DMSO): concentration-dependently relaxed
[4]; from 0.03 to 1 μM
  relaxant effects compared to vehicle control group (DMSO): no relaxant effects
[5]
  Kp: 0.06 to 0.27
MRSA clinical strain [2]; after the 4-day treatment period
  development of resistance: No development of resistance
MRSA clinical strain [6]
  MIC: 4 ng/mL (≈ 0.0107 µM)
Human PDE3A
  pIC50: 6.22
Human PDE3B
  pIC50: 6.15
MRSA clinical strain [7]; Example 4 isolate
  MIC: 4 ng/mL (≈ 0.0107 µM)

## O=C1CCc2cc(OCCCCc3nnnn3C3CCCCC3)ccc2N1 [cilostazol, reference compound]
[4]
  EC50: 832 nM
[4]; at 100 μM
  relaxation of 1 μM noradrenaline pre-contracted preparations: −70±7%
[4]; at 10 and 100 μM
  relaxant effects compared to vehicle control group (DMSO): concentration-dependently relaxed
[4]; from 0.001 to 1 μM
  relaxant effects compared to vehicle control group (DMSO): no relaxant effects
Human PDE3A
  pIC50: 6.38
Human PDE3B
  pIC50: 6.04

## C[C@@H]1O[C@@H]1P(=O)(O)O [fosfomycin]
[3]
  mean reduction in bacterial burden compared to vehicle controls: 3.3 log10 CFU/g of bone
  Bone cultures found negative (rats): 2/6

## CN[C@H](CC(C)C)C(=O)N[C@H]1C(=O)N[C@@H](CC(N)=O)C(=O)N[C@H]2C(=O)N[C@H]3C(=O)N[C@H](C(=O)N[C@H](C(=O)O)c4cc(O)cc(O)c4-c4cc3ccc4O)[C@H](O)c3ccc(c(Cl)c3)Oc3cc2cc(c3O[C@@H]2O[C@H](CO)[C@@H](O)[C@H](O)[C@H]2O[C@H]2C[C@](C)(N)[C@H](O)[C@H](C)O2)Oc2ccc(cc2Cl)[C@H]1O [vancomycin, reference compound]
MRSA clinical strain [1]
  bacterial counts in BM and bone, result in words: No significant difference
  Mean ± SD Δlog10 CFU/g of tissue (day 3-day 7), Bone marrow: −1.05 ± 1.30 log10 CFU/g of tissue
  Mean ± SD Δlog10 CFU/g of tissue (day 3-day 7), Epiphyseal bone: −0.49 ± 0.65 log10 CFU/g of tissue
MRSA clinical strain [7]
  MIC: 1000 ng/mL (≈ 0.69 µM)
[3]
  mean reduction in bacterial burden compared to vehicle controls: no statistically significant reduction
  Bone cultures found negative (rats): 0/6
